Read-outs that look alike come from different tables or passages of the source.
Experiments:
T. cruzi epimastigotes = experiment: Trypanocidal activity against T. cruzi epimastigotes (XTT); assay type: cell-based, Trypanosoma cruzi; details: for IC50: Trypanosoma cruzi, read-out: T. cruzi IC50; for selectivity ratio at 72 h: mouse (RAW 264.7 cells) / Trypanosoma cruzi (epimastigotes), RAW cell IC50 / T. cruzi IC50, read-out: T. cruzi SI (selectivity index, cytotoxicity/anti-protozoal activity)
Experimental: Trypanocidal activity was determined according to Muelas-Serrano with some modifications. […] Benznidazol (3.1–100 μg/mL) was used as the control drug. Assays were performed in triplicates.

[1] = system: L. brasiliensis promastigotes; experiment: Leishmanicidal activity against L. brasiliensis promastigotes (XTT); details: for IC50: 72 h, read-out: L. brasiliensis IC50
Experimental: (§1) Evaluations against Leishmania parasites: Promastigotes of Leishmania-Leishmania: L. amazonensis, Clone 1, NHOM-BR-76-LTB-012 (Lma, donated by the Paul Sabatier Université, France) and Leishmania-Viannia: L. braziliensis M2904 C192 RJA (M2904, donated by Dr. Jorge Arévalo from Universidad Peruana Cayetano Heredia, Peru). All strains were cultured in Schneider’s insect medium, (pH 6.2) supplemented with 10% FBS and incubated at 26 °C. Medium changes were made every 72 h to maintain a viable parasitic population. Leishmanicidal activity was determined according to Williams with some modifications. Samples were dissolved in DMSO (maximum final concentration 1%) at 10 mg/mL. Promastigotes in logarithmic phase of growth, at the concentration 3 × 10^6 parasites/mL, were distributed (100 μL/well) in 96-well flat bottom microtiter plates. Samples with different concentrations (3.1–100 μg/mL) were added (100 μL). […] Assays were performed in triplicates. The microwell plates were incubated for 72 h at 26 °C. After incubation, a solution of XTT (1 mg/mL) in PBS (pH 7.0 at 37 °C) with PMS (0.06 mg/mL) was added (50 μL/well), and incubated for 3 h at 26 °C. The optical density of each well was measured and the IC50 values calculated.

[2] = system: L. amazoniensis promastigotes; experiment: Leishmanicidal activity against L. amazoniensis promastigotes (XTT); details: for IC50: Leishmania amazonensis, 72 h, read-out: L. amazoniensis IC50
Experimental: as §1, with “All” for “Evaluations against Leishmania parasites: Promastigotes of Leishmania-Leishmania: L. amazonensis, Clone 1, NHOM-BR-76-LTB-012 (Lma, donated by the Paul Sabatier Université, France) and Leishmania-Viannia: L. braziliensis M2904 C192 RJA (M2904, donated by Dr. Jorge Arévalo from Universidad Peruana Cayetano Heredia, Peru). All”

[3] = Cytotoxicity in RAW cells (Resazurin); assay type: cell-based, murine; details: mouse
Experimental: Evaluations against RAW cells: The Raw 264.7 murine macrophage cell line was purchased from the American Type Culture Collection (ATCC-TIB71). The cells were maintained in DMEM-HG medium supplemented with 10% fetal bovine serum, 100 U/mL of penicillin and 100 μg/mL of streptomycin, and sodium bicarbonate (2.2 g/L) in humidified atmosphere at 37 °C with 5% CO2. Samples were prepared as described above and added (in 100 μL DMSO) at different concentrations (6.2–200 μg/mL). Medium blank, control drugs and cell growth controls were included to evaluate cell viability. The plates were incubated for 72 h at 37 °C with 5% CO2. After incubation for the indicated time, the cells were washed, after which 10 μL of Resazurin reagent (2.0 mM) was added. They were further incubated at 37 °C for 3 h in a humidified incubator. The IC50 values were assessed using a fluorometric reader (540 nm excitation, 590 nm emission) and the Gen5 software. All assays were performed in triplicate.

[4] = epimastigotes, 72 h at 26 °C, XTT, triplicates
[5] = L. brasiliensis SI (selectivity index, cytotoxicity/anti-protozoal activity), RAW cell IC50 / L. brasiliensis IC50
[6] = L. amazoniensis SI (selectivity index, cytotoxicity/anti-protozoal activity), RAW cell IC50 / L. amazoniensis IC50
[7] = RAW cells, 72 h at 37 °C, Resazurin, triplicate, read-out: Cytotoxicity IC50

Row | SMILES | IC50 (T. cruzi epimastigotes; [4]) [µM] | selectivity ratio at 72 h (T. cruzi epimastigotes) | IC50 [1] [µM] | selectivity ratio at 72 h [1, 5] | selectivity ratio at 72 h [2, 6] | IC50 [2] [µM] | IC50 at 72 h [3] [µM] | selectivity ratio at 72 h [1] | selectivity ratio at 72 h [2] | IC50 at 72 h [3, 7] [µM] | IC50 at 72 h ([3]; RAW 264.7 macrophage cells (ATCC-TIB71), RAW cells, 72 h at 37 °C, Resazurin, triplicate, read-out: Cytotoxicity IC50) [µM] | IC50 (T. cruzi epimastigotes; 72 h) [µM]
1 | COc1ccc2c(c1)-c1cc(C(N)=O)ccc1C(C)(C)O2 [5e, 2-Methoxy-6,6-dimethyl-6H-benzo[c]chromene-9-carboxamide] | 134 ± 38.8 | 0.4 | 145 ± 43.1 | 0.3 | 0.4 | 121 ± 21.2 | 49.8 ± 17.7 |  |  |  |  | 
2 | COc1ccc2c(c1)-c1cc(C(=N)NO)ccc1C(C)(C)O2 [compound 6, N-hydroxy-2-methoxy-6,6-dimethyl-6H-benzo[c]chromene-9-carboximidamide] | 33.4 ± 14.9 | 0.8 | 52 ± 18.6 | 0.5 | 0.5 | 52 ± 16.7 | 26.4 ± 1.5 |  |  |  |  | 
3 | COc1ccc2c(c1)-c1cc(COC(=O)CC(C)(C)C)ccc1C(C)(C)O2 [4f, (2-Methoxy-6,6-dimethyl-6H-benzo[c]chromen-9-yl)methyl 3,3-dimethylbutanoate] | 5.7 ± 0.3 | 3.3 | 20 ± 4.2 | 1 | 1 | 19.5 ± 0.8 | 19 ± 3 |  |  |  |  | 
4 | COCc1ccc2c(c1)-c1cc(OC)ccc1OC2(C)C [3c, 2-Methoxy-9-(methoxymethyl)-6,6-dimethyl-6H-benzo[c]chromene] | 24.6 ± 3.5 | 1.3 | 49.2 ± 15.8 | 0.7 | 0.6 | 56.3 ± 12 | 33.1 ± 2.1 |  |  |  |  | 
5 | COc1ccc2c(c1)-c1cc(COC(=O)C(C)(C)C)ccc1C(C)(C)O2 [4c, (2-Methoxy-6,6-dimethyl-6H-benzo[c]chromen-9-yl)methyl pivalate] | 6.4 ± 0.1 | 3 | 17.4 ± 1.7 |  |  | 20.5 ± 0.6 |  | 1.1 | 1 | 19.8 ± 0.9 |  | 
6 | COc1ccc2c(c1)-c1cc(C)ccc1C(C)(C)O2 [3a, 2-Methoxy-6,6,9-trimethyl-6H-benzo[c]chromene] | 51.1 ± 17.7 | 2 | 69.6 ± 5.9 |  |  | 85.3 ± 5.9 | 99.5 ± 22 | 1.4 | 1.2 |  |  | 
7 | CCCCCCCCCCCCCCCCOP(=O)([O-])OCC[N+](C)(C)C [Miltefosine, reference compound] |  |  | 13 ± 1.2 |  |  |  |  |  |  |  | 76.6 ± 3.2 | 
8 | COc1ccc2c(c1)-c1cc(CCl)ccc1C(C)(C)O2 [3b, 9-(chloromethyl)-2-methoxy-6,6-dimethyl-6H-benzo[c]chromene] | 38.1 ± 0.4 | 1.6 | 17.1 ± 0.1 | 3.5 | 1.7 | 35 ± 2.8 | 59.2 ± 14.5 |  |  |  |  | 
9 | CCCC(=O)OCc1ccc2c(c1)-c1cc(OC)ccc1OC2(C)C [4d, (2-Methoxy-6,6-dimethyl-6H-benzo[c]chromen-9-yl)methyl butyrate] | 16.2 ± 3.2 | 6.4 | 57.8 ± 2.4 | 1.8 | 1.3 | 79.3 ± 9.4 | 103 ± 35.3 |  |  |  |  | 
10 | O=C(Cn1ccnc1[N+](=O)[O-])NCc1ccccc1 [Benznidazole, reference compound] |  | 3.9 |  |  |  |  |  |  |  | 74.7 ± 9.1 |  | 19.2 ± 7.7

Reference: article PMC7412453, “SAR:s for the Antiparasitic Plant Metabolite Pulchrol. 1. The Benzyl Alcohol Functionality” (Molecules, 2020)
